In patent US20040197346A1, “Materials and methods for intracellular transport and their uses” (Marie Curie Cancer Care, priority 1997, published 2004):

How the values were obtained:
[1] = Transport activity of VP22 sub-sequences; format: cell-based; details: sub-sequences of full HSV1 VP22 sequence (1-301)
[2] = test system: Cos-1 cells; assay: Delivery by intercellular trafficking, immunofluorescence of transfected Cos-1 cell monolayers; format: cell-based; details: transfected Cos-1 cells, 48 h, methanol-fixed, anti-VP22/-p53/-epitope immunofluorescence
Protocol: Cos-1 cells were grown in Dulbecco's modified MEM supplemented with 10% new born calf serum at 37° C. with 5% CO2.
Transfections were performed using the BES/CaCl2 method (Elliott and O'Hare, 1997) with 200 ng test plasmid with 1800 ng pUB19. Transfections were allowed to proceed for 48 h at which point the monolayers were harvested for immunofluorescence or western blot analysis.
Cell monolayers on coverslips were fixed with 100% methanol for 15 mins at room temperature and labelled as described in Elliott and O'Hare (1997). All antibodies were diluted in PBS+10% serum. VP22 was detected using a rabbit polyclonal antibody AGV30 (1:500), p53 was detected using a mouse monoclonal antibody DO-1 (Santa-Cruz Ltd), the CMV epitope was detected using a mouse monoclonal antibody CMV. LNA (Capricorn Ltd). Images were obtained using a Bio-Rad MRC600 confocal microscope.
The VP22-p53 fusion protein construct was generated by cloning a full length p53 PCR fragment C-terminal to VP22 into a unique Bam site, keeping both VP22 and the CMV epitope in frame.
We constructed an epitope-tagged full length in-frame VP22-p53 fusion protein construct (FIG. 2). This vector generates a fusion protein of approx 90 kDa when expressed in Cos-1 cells, with very little protein degradation as judged by western blot analysis (FIG. 3). […]

Substance: aa 159-301: polypeptide corresponding to aminoacids 159-301 of the full HSV1 VP22 sequence (1-301)
- transport activity [1]: transport activity is present

Substance: VP22: HSV-1 virion protein VP22, 38 kDa, with intercellular trafficking mechanism
- delivery by intercellular trafficking (spread into nuclei of neighbouring non-expressing cells) [2]: clear spread to the nuclei of adjacent cells

Substance: aa 175-301: polypeptide consisting of aa 175-301 of the VP22 sequence
- transport activity [1]: markedly less transport activity

Substance: deletion of the 34-aminoacid C-terminal sequence from VP22 of HSV1: VP22 of HSV1 lacking its 34-aminoacid C-terminal sequence
- transport activity [1]: abolishes transport-activity

Substance: aa 60-301: polypeptide corresponding to aminoacids 60-301 of the full HSV1 VP22 sequence (1-301)
- transport activity [1]: transport activity is present
